Experimental data: patent US11191762B2, “Alkyl substituted triazole compounds as agonists of the APJ Receptor” (priority 2016, dated 2021)

Target: human APJ receptor (Homo sapiens (Human), UniProt P35414)
Assay: biochemical
Format: biochemical
Conditions: [35S]GTPγS binding, membranes from CHO cells stably expressing human APJ receptor; read-out: Activity hAPJ SPA EC50 IP
Experimental: The human APJ receptor was cloned by polymerase chain reaction and the gene encoding the receptor was subcloned in pFLAG-CMV™-3 expression vector (Sigma, Saint Louis, Mo. USA) in-house at Amgen. A GTPγS binding assay was performed on membranes prepared from CHO cells stably expressing human APJ receptor. The optimum experimental conditions for the concentrations of GDP, MgCl2, and NaCl in the assay buffer were initially determined. The assay was performed in 9 μL assay buffer [20 mM HEPES, pH 7.5, 5 mM MgCl2, 100 mM NaCl and 0.1% (w/v) BSA], 1 μL of diluted test compound (starting with 0.75 mM, 2-fold serial dilution with DMSO, total 22 points), 10 μL of 18 µM GDP (final concentration of 3 μM GDP), 20 μL of […] membrane protein expressing human APJ receptor captured with WGA PS beads (final concentration of 5 μg per well), and 20 μL of 0.3 nM [^35S]GTPγS (final concentration is 0.1 nM [^35S]GTPγS)(Perkin Elmer Life and Analytical Sciences, Waltham USA).

human APJ receptor, sequence (P35414 whole entry): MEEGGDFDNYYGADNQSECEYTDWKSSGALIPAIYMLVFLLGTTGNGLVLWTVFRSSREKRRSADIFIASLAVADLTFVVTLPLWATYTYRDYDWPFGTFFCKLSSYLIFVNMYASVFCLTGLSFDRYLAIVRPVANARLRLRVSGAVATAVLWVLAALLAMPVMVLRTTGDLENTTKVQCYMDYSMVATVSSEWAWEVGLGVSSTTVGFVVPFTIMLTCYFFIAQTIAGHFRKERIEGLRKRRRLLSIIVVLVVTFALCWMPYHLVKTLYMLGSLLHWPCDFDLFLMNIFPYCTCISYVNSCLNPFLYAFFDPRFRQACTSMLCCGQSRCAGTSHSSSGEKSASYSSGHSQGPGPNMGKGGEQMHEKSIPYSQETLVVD

| Structure (SMILES) | EC50 [nM] |
| --- | --- |
| COc1cccc(OC)c1-n1c(NS(=O)(=O)[C@@H](C)[C@H](C)c2ncc(Cl)cn2)nnc1[C@@H](O)c1ccccc1 [Example 13.0, (2S,3R)-3-(5-chloro-2-pyrimidinyl)-N-(4-(2,6-dimethoxyphenyl)-5-((S)-hydroxy(phenyl)methyl)-4H-1,2,4-triazol-3-yl)-2-butanesulfonamide] | 110 |
| COc1cccc(OC)c1-n1c(Cc2ccccc2)nnc1NS(=O)(=O)[C@@H](C)[C@H](C)c1ncc(Cl)cn1 [Example 14.0, (2S,3R)-N-(5-benzyl-4-(2,6-dimethoxyphenyl)-4H-1,2,4-triazol-3-yl)-3-(5-chloro-2-pyrimidinyl)-2-butanesulfonamide] | 4.6 |
| COc1cccc(OC)c1-n1c(Cc2cccnc2)nnc1NS(=O)(=O)[C@@H](C)[C@H](C)c1ncc(C)cn1 [Example 15.0, (2S,3R)-N-(4-(2,6-dimethoxyphenyl)-5-(3-pyridinylmethyl)-4H-1,2,4-triazol-3-yl)-3-(5-methyl-2-pyrimidinyl)-2-butanesulfonamide] | 180 |
| COc1cccc(OC)c1-n1c(NS(=O)(=O)[C@@H](C)[C@H](C)c2ncc(C)cn2)nnc1-c1cccc2c1CC(=O)N2 [Example 16.0, (2S,3R)-N-(4-(2,6-dimethoxyphenyl)-5-(2-oxoindolin-4-yl)-4H-1,2,4-triazol-3-yl)-3-(5-methylpyrimidin-2-yl)butane-2-sulfonamide] | 120 |
| COc1cccc(OC)c1-n1c(NS(=O)(=O)[C@@H](C)[C@H](C)c2ncc(C)cn2)nnc1-c1cccc2c1CC(=O)N2 [Example 17.0, (2S,3R)-N-(4-(2,6-dimethoxyphenyl)-5-(2-oxoindolin-4-yl)-4H-1,2,4-triazol-3-yl)-3-(5-methylpyrimidin-2-yl)butane-2-sulfonamide] | 350 |
| COc1cccc(OC)c1-n1c(NS(=O)(=O)[C@@H](C)[C@H](C)c2ncc(C)cn2)nnc1[C@H](OC)c1ccccc1 [Example 18.0, (2S,3R)-N-(4-(2,6-dimethoxyphenyl)-5-((R)-methoxy(phenyl)methyl)-4H-1,2,4-triazol-3-yl)-3-(5-methyl-2-pyrimidinyl)-2-butanesulfonamide] | 240 |
| COc1cccc(OC)c1-n1c(NS(=O)(=O)[C@@H](C)[C@H](C)c2ncc(C)cn2)nnc1[C@@H](OC)c1ccccc1 [Example 19.0, (2S,3R)-N-(4-(2,6-dimethoxyphenyl)-5-((S)-methoxy(phenyl)methyl)-4H-1,2,4-triazol-3-yl)-3-(5-methyl-2-pyrimidinyl)-2-butanesulfonamide] | 200 |
| COc1cccc(OC)c1-n1c(Cc2ccc(C)cn2)nnc1NS(=O)(=O)[C@@H](C)[C@H](C)c1ncc(C)cn1 [Example 20.0, (2S,3R)-N-(4-(2,6-dimethoxyphenyl)-5-((5-methyl-2-pyridinyl)methyl)-4H-1,2,4-triazol-3-yl)-3-(5-methyl-2-pyrimidinyl)-2-butanesulfonamide] | > 4200 |
| COc1ncnc(OC)c1-n1c(Cc2ccccc2)nnc1NS(=O)(=O)[C@@H](C)[C@H](C)c1ncc(Cl)cn1 [Example 21.0, (2S,3R)-N-(5-benzyl-4-(4,6-dimethoxy-5-pyrimidinyl)-4H-1,2,4-triazol-3-yl)-3-(5-chloro-2-pyrimidinyl)-2-butanesulfonamide] | 120 |
| COc1ncnc(OC)c1-n1c(Cc2ccccc2)nnc1NS(=O)(=O)[C@@H](C)[C@H](OC)c1ncc(Cl)cn1 [Example 22.0, (1R,2S)-N-(5-benzyl-4-(4,6-dimethoxy-5-pyrimidinyl)-4H-1,2,4-triazol-3-yl)-1-(5-chloro-2-pyrimidinyl)-1-methoxy-2-propanesulfonamide] | 120 |
| COc1ncnc(OC)c1-n1c(Cc2ccccc2)nnc1NS(=O)(=O)[C@@H](C)[C@H](C)c1ncc(C)cn1 [Example 23.0, (2S,3R)-N-(5-benzyl-4-(4,6-dimethoxy-5-pyrimidinyl)-4H-1,2,4-triazol-3-yl)-3-(5-methyl-2-pyrimidinyl)-2-butanesulfonamide] | 400 |
| COc1ncnc(OC)c1-n1c(CC2CCC2)nnc1NS(=O)(=O)[C@@H](C)[C@H](OC)c1ncc(Cl)cn1 [Example 24.0, (1R,2S)-1-(5-chloro-2-pyrimidinyl)-N-(5-(cyclobutylmethyl)-4-(4,6-dimethoxy-5-pyrimidinyl)-4H-1,2,4-triazol-3-yl)-1-methoxy-2-propanesulfonamide] | 1.5 |
| CO[C@H](c1ncc(Cl)cn1)[C@H](C)S(=O)(=O)Nc1nnc(CC2CCC2)n1C1CCOCC1 [Example 25.0, (1R,2S)-1-(5-chloro-2-pyrimidinyl)-N-(5-(cyclobutylmethyl)-4-(tetrahydro-2H-pyran-4-yl)-4H-1,2,4-triazol-3-yl)-1-methoxy-2-propanesulfonamide] | 370 |
| COc1cccc(OC)c1-n1c(C)nnc1NS(=O)(=O)[C@@H](C)[C@H](OC)c1ncc(C)cn1 [Example 26.0, (1R,2S)-N-(4-(2,6-dimethoxyphenyl)-5-methyl-4H-1,2,4-triazol-3-yl)-1-methoxy-1-(5-methylpyrimidin-2-yl)propane-2-sulfonamide] | 120 |
| COc1ncnc(OC)c1-n1c(CC2CC2)nnc1NS(=O)(=O)[C@@H](C)[C@H](OC)c1ncc(Cl)cn1 [Example 27.0, (1R,2S)-1-(5-chloro-2-pyrimidinyl)-N-(5-(cyclopropylmethyl)-4-(4,6-dimethoxy-5-pyrimidinyl)-4H-1,2,4-triazol-3-yl)-1-methoxy-2-propanesulfonamide] | 7.6 |
| COc1ncnc(OC)c1-n1c(CC2CCCC2)nnc1NS(=O)(=O)[C@@H](C)[C@H](OC)c1ncc(Cl)cn1 [Example 28.0, (1R,2S)-1-(5-chloro-2-pyrimidinyl)-N-(5-(cyclopentylmethyl)-4-(4,6-dimethoxy-5-pyrimidinyl)-4H-1,2,4-triazol-3-yl)-1-methoxy-2-propanesulfonamide] | 4.5 |
| COc1ncnc(OC)c1-n1c(CC2CCCCC2)nnc1NS(=O)(=O)[C@@H](C)[C@H](OC)c1ncc(Cl)cn1 [Example 29.0, (1R,2S)-1-(5-chloro-2-pyrimidinyl)-N-(5-(cyclohexylmethyl)-4-(4,6-dimethoxy-5-pyrimidinyl)-4H-1,2,4-triazol-3-yl)-1-methoxy-2-propanesulfonamide] | 21 |
| COCc1nnc(NS(=O)(=O)[C@@H](C)[C@@H](OC(C)C)c2ncc(C)cn2)n1-c1c(F)cccc1F [Example 30.0, (1S,2S)-N-(4-(2,6-difluorophenyl)-5-(methoxymethyl)-4H-1,2,4-triazol-3-yl)-1-(1-methylethoxy)-1-(5-methyl-2-pyrimidinyl)-2-propanesulfonamide] | 240 |
| COc1ncnc(OC)c1-n1c(CC(C)C)nnc1NS(=O)(=O)[C@@H](C)[C@H](OC)c1ncc(Cl)cn1 [Example 31.0, (1R,2S)-1-(5-chloro-2-pyrimidinyl)-N-(4-(4,6-dimethoxy-5-pyrimidinyl)-5-(2-methylpropyl)-4H-1,2,4-triazol-3-yl)-1-methoxy-2-propanesulfonamide] | 7.6 |
| COCCc1nnc(NS(=O)(=O)[C@@H](C)[C@H](C)c2ncc(Cl)cn2)n1-c1c(OC)cccc1OC [Example 32.0, (2S,3R)-3-(5-chloro-2-pyrimidinyl)-N-(4-(2,6-dimethoxyphenyl)-5-(2-methoxyethyl)-4H-1,2,4-triazol-3-yl)-2-butanesulfonamide] | 10 |
| COc1ncnc(OC)c1-n1c(CC2COC2)nnc1NS(=O)(=O)[C@@H](C)[C@H](C)c1ncc(Cl)cn1 [Example 33.0, (2S,3R)-3-(5-chloro-2-pyrimidinyl)-N-(4-(4,6-dimethoxy-5-pyrimidinyl)-5-(3-oxetanylmethyl)-4H-1,2,4-triazol-3-yl)-2-butanesulfonamide] | 210 |
| COc1cccc(OC)c1-n1c(CC2COC2)nnc1NS(=O)(=O)[C@@H](C)[C@H](C)c1ncc(Cl)cn1 [Example 34.0, (2S,3R)-3-(5-chloro-2-pyrimidinyl)-N-(4-(2,6-dimethoxyphenyl)-5-(3-oxetanylmethyl)-4H-1,2,4-triazol-3-yl)-2-butanesulfonamide] | 16 |
| COc1cccc(OC)c1-n1c(Cc2ccccn2)nnc1NS(=O)(=O)[C@@H](C)[C@H](C)c1ncc(Cl)cn1 [Example 35.0, (2S,3R)-3-(5-chloro-2-pyrimidinyl)-N-(4-(2,6-dimethoxyphenyl)-5-(2-pyridinylmethyl)-4H-1,2,4-triazol-3-yl)-2-butanesulfonamide] | 32 |
| COc1cccc(OC)c1-n1c(CCc2ccco2)nnc1NS(=O)(=O)[C@@H](C)[C@H](C)c1ncc(Cl)cn1 [Example 36.0, (2S,3R)-3-(5-chloro-2-pyrimidinyl)-N-(4-(2,6-dimethoxyphenyl)-5-(2-(2-furanyl)ethyl)-4H-1,2,4-triazol-3-yl)-2-butanesulfonamide] | 2.9 |
| COc1cccc(OC)c1-n1c(CS(C)(=O)=O)nnc1NS(=O)(=O)[C@@H](C)[C@H](C)c1ncc(Cl)cn1 [Example 37.0, (2S,3R)-3-(5-chloro-2-pyrimidinyl)-N-(4-(2,6-dimethoxyphenyl)-5-((methylsulfonyl)methyl)-4H-1,2,4-triazol-3-yl)-2-butanesulfonamide] | 340 |
| COc1cccc(OC)c1-n1c(Cc2ccsc2)nnc1NS(=O)(=O)[C@@H](C)[C@H](C)c1ncc(Cl)cn1 [Example 38.0, (2S,3R)-3-(5-chloro-2-pyrimidinyl)-N-(4-(2,6-dimethoxyphenyl)-5-(3-thiophenylmethyl)-4H-1,2,4-triazol-3-yl)-2-butanesulfonamide] | 6 |
